Assay results published in patent publication US20100298141A1, “SUBSTITUTED PYRIDINE N-OXIDE HERBICIDES” (E. I. DU PONT DE NEMOURS AND COMPANY, priority 2007, published 2010).

How the values were obtained:
[1] = tested on: common ragweed; assay: Test C pre-/postemergence test; format: in vivo, Ambrosia elation; settings: for Plant response rating, Ragweed: scale 0 to 100, 0 no effect, 100 complete control
In short: (§1)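 Compounds in a non-phytotoxic solvent with surfactant applied preemergence to seeded pots and, at the same time, postemergence to plants 2–18 cm tall (1- to 4-leaf stage). Paddy tests: pots flooded to 3 cm, compound applied into the water, depth held throughout.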

[2] = tested on: redroot pigweed; assay: Test A pre-/postemergence greenhouse test; format: in vivo, Amaranthus retroflexus; settings: for Pigweed plant response rating: 0 to 100 scale
In short: (§2)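 Test compounds in non-phytotoxic solvent with surfactant were applied as a preemergence soil spray to seeded loam/sand pots and, concurrently, postemergence to plants at 2–10 cm, one- to two-leaf stage. About ten days in greenhouse, then injury visually rated against untreated controls.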

[3] = tested on: green foxtail; assay: Test C pre-/postemergence test; format: in vivo, Setaria viridis; settings: for Plant response rating, Foxtail, Green: scale 0 to 100, 0 no effect, 100 complete control
In short: as §1

[4] = tested on: crabgrass; assay: Test A pre-/postemergence greenhouse test; format: in vivo, Digitaria sanguinalis; settings: for Crabgrass, Large plant response rating: 0 to 100 scale
In short: as §2

[5] = tested on: wild oat; assay: Test C pre-/postemergence test; format: in vivo, Avena fatua; settings: for Plant response rating, Oat, Wild: scale 0 to 100, 0 no effect, 100 complete control
In short: as §1

[6] = tested on: Italian ryegrass; assay: Test C pre-/postemergence test; format: in vivo, Lolium multiflorum; settings: for Ryegrass, Italian plant response rating: preemergence, scale 0 (no effect) to 100 (complete control); for Plant response rating, Ryegrass, Italian: scale 0 to 100, 0 no effect, 100 complete control
In short: as §1

[7] = tested on: Goosegrass; assay: Test C pre-/postemergence test; format: in vivo, Eleusin indica; settings: for Plant response rating, Goosegrass: scale 0 to 100, 0 no effect, 100 complete control
In short: as §1

[8] = tested on: yellow nutsedge; assay: Test C pre-/postemergence test; format: in vivo, Cyperus esculentus; settings: for Plant response rating, Nutsedge, Yellow: scale 0 to 100, 0 no effect, 100 complete control
In short: as §1

[9] = tested on: blackgrass; assay: Test C pre-/postemergence test; format: in vivo, Alopecurus myosuroides; settings: for Plant response rating, Blackgrass: scale 0 to 100, 0 no effect, 100 complete control
In short: as §1

[10] = tested on: common (oilseed) sunflower; assay: Test C pre-/postemergence test; format: in vivo, Helianthus annuus; settings: for Sunflower plant response rating: preemergence, scale 0 (no effect) to 100 (complete control)
In short: as §1

[11] = tested on: corn; assay: Test C pre-/postemergence test; format: in vivo, Zea mays; settings: for Plant response rating, Corn: scale 0 to 100, 0 no effect, 100 complete control
In short: as §1

[12] = tested on: wheat; assay: Test C pre-/postemergence test; format: in vivo, Triticum aestivum; settings: for Wheat plant response rating: preemergence, scale 0 (no effect) to 100 (complete control); for Plant response rating, Wheat: scale 0 to 100, 0 no effect, 100 complete control
In short: as §1

[13] = tested on: woolly cupgrass; assay: Test C pre-/postemergence test; format: in vivo, Eriochloa villosa; settings: for Plant response rating, Cupgrass, Woolly: scale 0 to 100, 0 no effect, 100 complete control
In short: as §1

[14] = tested on: morningglory; assay: Test A pre-/postemergence greenhouse test; format: in vivo, Ipomoea spp.; settings: for Morningglory plant response rating: 0 to 100 scale
In short: as §2

[15] = tested on: eastern black nightshade; assay: Test C pre-/postemergence test; format: in vivo, Solanum ptycanthum
In short: as §1

[16] = 31 g ai/ha, Preemergence, scale 0 to 100
[17] = 62 g ai/ha, preemergence, scale 0 (no effect) to 100 (complete control)
[18] = preemergence, 125 g ai/ha, scale 0 (no effect) to 100 (complete control)
[19] = Postemergence, 125 g ai/ha, 0 is no effect, 100 is complete control
[20] = Postemergence, 500 g ai/ha, 0 is no effect, 100 is complete control
[21] = Preemergence, 125 g ai/ha, 0 no effect, 100 complete control
[22] = Preemergence, 500 g ai/ha, 0 to 100 scale where 0 is no effect and 100 is complete control

Cc1cc[n+]([O-])c(S(=O)(=O)Cc2c(C(F)(F)F)nn(C)c2OC(F)F)c1 [Compound 2]
Ragweed plant response rating [1, 16]: 20 | Ragweed plant response rating [1, 17]: 98 | Plant response rating (0 to 100), Ragweed ([1]; Postemergence, 31 g ai/ha): 0 | Plant response rating (0 to 100), Ragweed ([1]; Postemergence, 62 g ai/ha): 0 | Plant response rating, Ragweed ([1]; Postemergence, 125 g ai/ha): 5 | Plant response rating, Ragweed ([1]; Postemergence, 250 g ai/ha): 10 | Plant response rating (0 to 100), Ragweed ([1]; Preemergence, 250 g ai/ha): 100 | Ragweed plant response rating [1, 18]: 100 | Pigweed plant response rating [2, 19]: 100 | Pigweed plant response rating [2, 20]: 100 | Pigweed plant response rating [2, 21]: 100 | Plant response rating, Pigweed [2, 22]: 100 | Foxtail, Green plant response rating [3, 16]: 100 | Foxtail, Green plant response rating [3, 17]: 100 | Plant response rating (0 to 100), Foxtail, Green ([3]; Postemergence, 31 g ai/ha): 0 | Plant response rating, Foxtail, Green ([3]; Postemergence, 62 g ai/ha): 0 | Plant response rating, Foxtail, Green ([3]; Postemergence, 125 g ai/ha): 20 | Plant response rating, Foxtail, Green ([3]; Postemergence, 250 g ai/ha): 50 | Plant response rating (0 to 100), Foxtail, Green ([3]; Preemergence, 250 g ai/ha): 100 | Foxtail, Green plant response rating [3, 18]: 100 | Crabgrass, Large plant response rating [4, 19]: 70 | Crabgrass, Large plant response rating [4, 20]: 90 | Crabgrass, Large plant response rating [4, 21]: 90 | Plant response rating, Crabgrass, Large [4, 22]: 100 | Oat, Wild plant response rating [5, 16]: 50 | Oat, Wild plant response rating [5, 17]: 65 | Plant response rating (0 to 100), Oat, Wild ([5]; Postemergence, 31 g ai/ha): 0 | Plant response rating, Oat, Wild ([5]; Postemergence, 62 g ai/ha): 0 | Plant response rating, Oat, Wild ([5]; Postemergence, 125 g ai/ha): 0 | Plant response rating, Oat, Wild ([5]; Postemergence, 250 g ai/ha): 0 | Plant response rating (0 to 100), Oat, Wild ([5]; Preemergence, 250 g ai/ha): 95 | Oat, Wild plant response rating [5, 18]: 70 | Ryegrass, Italian plant response rating ([6]; 62 g ai/ha): 50 | Plant response rating (0 to 100), Ryegrass, Italian ([6]; Postemergence, 31 g ai/ha): 0 | Plant response rating (0 to 100), Ryegrass, Italian ([6]; Postemergence, 62 g ai/ha): 0 | Plant response rating, Ryegrass, Italian ([6]; Postemergence, 125 g ai/ha): 0 | Plant response rating, Ryegrass, Italian ([6]; Postemergence, 250 g ai/ha): 0 | Plant response rating (0 to 100), Ryegrass, Italian ([6]; Preemergence, 250 g ai/ha): 100 | Ryegrass, Italian plant response rating ([6]; 125 g ai/ha): 50 | Goosegrass plant response rating [7, 16]: 80 | Goosegrass plant response rating [7, 17]: 100 | Plant response rating (0 to 100), Goosegrass ([7]; Postemergence, 31 g ai/ha): 0 | Plant response rating, Goosegrass ([7]; Postemergence, 62 g ai/ha): 0 | Plant response rating, Goosegrass ([7]; Postemergence, 125 g ai/ha): 0 | Plant response rating, Goosegrass ([7]; Postemergence, 250 g ai/ha): 0 | Plant response rating (0 to 100), Goosegrass ([7]; Preemergence, 250 g ai/ha): 100 | Goosegrass plant response rating [7, 18]: 100 | Nutsedge, Yellow plant response rating [8, 16]: 0 | Nutsedge, Yellow plant response rating [8, 17]: 95 | Plant response rating (0 to 100), Nutsedge, Yellow ([8]; Postemergence, 31 g ai/ha): 0 | Plant response rating, Nutsedge, Yellow ([8]; Postemergence, 62 g ai/ha): 0 | Plant response rating, Nutsedge, Yellow ([8]; Postemergence, 125 g ai/ha): 0 | Plant response rating, Nutsedge, Yellow ([8]; Postemergence, 250 g ai/ha): 0 | Plant response rating (0 to 100), Nutsedge, Yellow ([8]; Preemergence, 250 g ai/ha): 100 | Nutsedge, Yellow plant response rating [8, 18]: 95 | Blackgrass plant response rating [9, 16]: 60 | Blackgrass plant response rating [9, 17]: 80 | Plant response rating (0 to 100), Blackgrass ([9]; Postemergence, 31 g ai/ha): 0 | Plant response rating, Blackgrass ([9]; Postemergence, 62 g ai/ha): 0 | Plant response rating, Blackgrass ([9]; Postemergence, 125 g ai/ha): 0 | Plant response rating, Blackgrass ([9]; Postemergence, 250 g ai/ha): 0 | Plant response rating (0 to 100), Blackgrass ([9]; Preemergence, 250 g ai/ha): 100 | Blackgrass plant response rating [9, 18]: 80 | Sunflower plant response rating ([10]; 62 g ai/ha): 5 | Plant response rating (0 to 100), Sunflower ([10]; Preemergence, 250 g ai/ha): 100 | Sunflower plant response rating ([10]; 125 g ai/ha): 80 | Corn plant response rating [11, 16]: 0 | Corn plant response rating [11, 17]: 5 | Plant response rating (0 to 100), Corn ([11]; Postemergence, 31 g ai/ha): 0 | Plant response rating, Corn ([11]; Postemergence, 62 g ai/ha): 0 | Plant response rating, Corn ([11]; Postemergence, 125 g ai/ha): 0 | Plant response rating, Corn ([11]; Postemergence, 250 g ai/ha): 0 | Plant response rating (0 to 100), Corn ([11]; Preemergence, 250 g ai/ha): 85 | Corn plant response rating [11, 18]: 45 | Wheat plant response rating ([12]; 62 g ai/ha): 0 | Plant response rating (0 to 100), Wheat ([12]; Postemergence, 31 g ai/ha): 0 | Plant response rating (0 to 100), Wheat ([12]; Postemergence, 62 g ai/ha): 0 | Plant response rating, Wheat ([12]; Postemergence, 125 g ai/ha): 0 | Plant response rating, Wheat ([12]; Postemergence, 250 g ai/ha): 0 | Plant response rating (0 to 100), Wheat ([12]; Preemergence, 250 g ai/ha): 98 | Wheat plant response rating ([12]; 125 g ai/ha): 70 | Cupgrass, Woolly plant response rating [13, 16]: 65 | Cupgrass, Woolly plant response rating [13, 17]: 90 | Plant response rating (0 to 100), Cupgrass, Woolly ([13]; Postemergence, 31 g ai/ha): 0 | Plant response rating, Cupgrass, Woolly ([13]; Postemergence, 62 g ai/ha): 30 | Plant response rating, Cupgrass, Woolly ([13]; Postemergence, 125 g ai/ha): 50 | Plant response rating, Cupgrass, Woolly ([13]; Postemergence, 250 g ai/ha): 50 | Plant response rating (0 to 100), Cupgrass, Woolly ([13]; Preemergence, 250 g ai/ha): 100 | Cupgrass, Woolly plant response rating [13, 18]: 100 | Morningglory plant response rating [14, 19]: 60 | Morningglory plant response rating [14, 20]: 100 | Morningglory plant response rating [14, 21]: 80 | Plant response rating, Morningglory [14, 22]: 90 | Nightshade plant response rating [15, 16]: 98 | Nightshade plant response rating [15, 17]: 100 | Plant response rating (0 to 100), Nightshade ([15]; Preemergence, 250 g ai/ha): 100 | Nightshade plant response rating [15, 18]: 100
